Data: patent publication US20260184712A1, “Heterocyclic Compounds as ENT Inhibitors and Compounds for Use in the Treatment of Cancers” (iTeos Belgium SA, priority 2022, published 2026)

molecular target: T1, human ENT1 (Homo sapiens, UniProt Q99808); assay: ENT1 binding assay (competition with Sahenta-DY647 on JAR cells); conditions: competition with SAHENTA-DY647 binding; IC50 categorized; read-out: Binding Assay IC50
T1 construct: JAR cells expressing ENT1 were purchased from ATCC; host or cells: JAR cells
T1 sequence (Q99808 1-456): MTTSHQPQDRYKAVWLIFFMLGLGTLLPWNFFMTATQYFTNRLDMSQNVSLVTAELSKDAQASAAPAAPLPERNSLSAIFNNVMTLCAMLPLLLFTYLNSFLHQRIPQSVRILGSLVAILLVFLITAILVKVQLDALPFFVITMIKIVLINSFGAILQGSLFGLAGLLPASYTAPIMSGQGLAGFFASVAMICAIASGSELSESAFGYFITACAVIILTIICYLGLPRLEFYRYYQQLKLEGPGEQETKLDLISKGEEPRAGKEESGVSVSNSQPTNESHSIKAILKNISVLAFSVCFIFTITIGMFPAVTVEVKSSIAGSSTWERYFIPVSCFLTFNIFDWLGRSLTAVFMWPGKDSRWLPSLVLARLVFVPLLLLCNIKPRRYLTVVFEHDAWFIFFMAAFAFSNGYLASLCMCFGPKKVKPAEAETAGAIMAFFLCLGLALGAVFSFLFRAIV
Procedure, shortened: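 Fluorescent-tracer displacement: compound incubated with JAR cells 30 min, 4 °C, before Sahenta-DY647 (100 nM) for another 30 min, 4 °C, in Hepes-buffered HBSS with 0.1% BSA. Bound tracer read at 670 nm after washes; IC50 from four-parameter fit, reported as mean of pIC50 values.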

IC50 [nM] | Compound
> 500 | C[C@H]1O[C@@H](n2cnc3c(NCc4ccc(C(F)(F)F)c(Cl)c4)ncnc32)[C@H](O)[C@@H]1O [Compound 282]
> 500 | C[C@H]1O[C@@H](n2cnc3c(OCc4ccc([N+](=O)[O-])cc4)nc(O)nc32)[C@H](O)[C@@H]1O [Compound 256]
> 500 | C[C@H]1O[C@@H](n2c(N)nc3c(OCc4ccccc4)ncnc32)[C@H](O)[C@@H]1O [Compound 355]
> 500 | Cc1ccc2nc(CSc3ncnc4c3ncn4[C@@H]3O[C@H](C)[C@@H](O)[C@H]3O)cn2c1 [Compound 396]
> 500 | C[C@H]1O[C@@H](n2cnc3c(C(=O)N4CCC(c5ccc([N+](=O)[O-])cc5)CC4)ncnc32)[C@H](O)[C@@H]1O [Compound 418]
> 500 | C[C@H]1O[C@@H](n2cnc3c(NCc4ccc(-c5ncon5)cc4)ncnc32)[C@H](O)[C@@H]1O [Compound 255]
> 500 | C[C@H]1O[C@@H](n2c(NCC3COC3)nc3c(OCc4ccc(Cl)cc4)ncnc32)[C@H](O)[C@@H]1O [Compound 423]
> 500 | C[C@H]1O[C@@H](n2cnc3c(N[C@H]4C[C@@H]4c4ccc(Cl)cc4)ncnc32)[C@H](O)[C@@H]1O [Compound 327]
> 500 | C[C@H]1O[C@@H](n2cnc3c(SCc4cccc(OC5CC5)c4)ncnc32)[C@H](O)[C@@H]1O [Compound 306]
> 500 | C[C@H]1O[C@@H](n2cnc3c(NCCc4ccc([N+](=O)[O-])cc4)ncnc32)[C@H](O)[C@@H]1O [Compound 252]
> 500 | C[C@H]1O[C@@H](n2cnc3c(C(=O)NCc4ccc(OC(F)F)cc4)ncnc32)[C@H](O)[C@@H]1O [Compound 301]
> 500 | C[C@H]1O[C@@H](n2cnc3c(SCc4cccnn4)ncnc32)[C@H](O)[C@@H]1O [Compound 393]
> 500 | C[C@H]1O[C@@H](n2cnc3c(C(=O)NCc4ccccc4)ncnc32)[C@H](O)[C@@H]1O [Compound 417]
> 500 | C[C@H]1O[C@@H](n2cnc3c(SCc4cncc(C#N)c4)ncnc32)[C@H](O)[C@@H]1O [Compound 251]
> 500 | C[C@H]1O[C@@H](n2cnc3c(C(=O)NCc4ccc(C#N)cc4)ncnc32)[C@H](O)[C@@H]1O [Compound 361]
> 500 | C[C@H]1O[C@@H](n2cnc3c(NCc4cccc(OC(F)(F)F)c4)ncnc32)[C@H](O)[C@@H]1O [Compound 335]
> 500 | C[C@H]1O[C@@H](n2cnc3c(SCc4ccc(S(=O)(=O)N5CCCC5)cc4)ncnc32)[C@H](O)[C@@H]1O [Compound 391]
> 500 | C[C@H]1O[C@@H](n2cnc3c(OCc4cccc(S(C)(=O)=O)c4)ncnc32)[C@H](O)[C@@H]1O [Compound 332]
> 500 | C[C@H]1O[C@@H](n2cnc3c(C(=O)NCc4ccc5c(ccn5C)c4)ncnc32)[C@H](O)[C@@H]1O [Compound 351]
> 500 | Cc1cccc(C)c1CNc1ncnc2c1ncn2[C@@H]1O[C@H](C)[C@@H](O)[C@H]1O [Compound 331]
> 500 | C[C@H]1O[C@@H](n2cnc3c(OCCc4ccc([N+](=O)[O-])nc4)ncnc32)[C@H](O)[C@@H]1O [Compound 248]
> 500 | C[C@H]1O[C@@H](n2cnc3c(SCc4nc5ccccc5o4)ncnc32)[C@H](O)[C@@H]1O [Compound 392]
> 500 | C[C@H]1O[C@@H](n2cnc3c(NCc4ccc(-n5ccnn5)cc4)ncnc32)[C@H](O)[C@@H]1O [Compound 326]
> 500 | C[C@H]1O[C@@H](n2cnc3c(OCCc4ccc(OC(F)(F)F)nc4)ncnc32)[C@H](O)[C@@H]1O [Compound 349]
> 500 | C[C@H]1O[C@@H](n2cnc3c(COc4ccc(OC(F)(F)F)cc4)ncnc32)[C@H](O)[C@@H]1O [Compound 288]
> 500 | CNc1nc2c(OCc3ccccc3)ncnc2n1[C@@H]1O[C@H](C)[C@@H](O)[C@H]1O [Compound 264]

Continued, compound first:

Compound | IC50 [nM]
C[C@H]1OC(n2cnc3c(COc4ccc(OC(F)F)cc4)ncnc32)[C@H](O)[C@@H]1O (some centres unmarked) [Compound 233] | > 500
C[C@H]1O[C@@H](n2c(N[C@H]3C[C@](C)(O)C3)nc3c(OCc4ccc(OC(F)F)cc4)ncnc32)[C@H](O)[C@@H]1O [Compound 124] | < 1
C[C@H]1O[C@@H](n2c(N[C@H]3CC[C@](C)(O)CC3)nc3c(OCc4ccc(C(F)(F)F)cc4)ncnc32)[C@H](O)[C@@H]1O [Compound 125] | 1 to 20
Cc1cn(C2OC(C)C(O)C2O)c2ncnc(SCc3ccc([N+](=O)[O-])cc3)c12 (single isomer, unassigned) [Compound 194] | 20 to 500
C[C@H]1O[C@@H](n2c(N[C@H]3C[C@@H](O)C3)nc3c(OCc4ccc(C#N)cc4)ncnc32)[C@H](O)[C@@H]1O [Compound 51] | 1 to 20
C[C@H]1O[C@@H](n2c(N[C@H]3CC[C@@H](O)CC3)nc3c(OCc4ccc([N+](=O)[O-])cc4)ncnc32)[C@H](O)[C@@H]1O [Compound 56] | < 1
C[C@H]1O[C@@H](n2c(NCCCO)nc3c(N4CCc5ccc(C#N)cc5C4)ncnc32)[C@H](O)[C@@H]1O [Compound 155] | 1 to 20
CC1OC(n2c(NC3CCC(C)(O)CC3)nc3c(OCc4ccc([N+](=O)[O-])cc4)ncnc32)C(O)C1O (single isomer, unassigned) [Compound 117] | 1 to 20
CC(C)Nc1nc2c(N3CCc4ccc([N+](=O)[O-])cc4C3)ncnc2n1[C@@H]1O[C@H](C)[C@@H](O)[C@H]1O [Compound 149] | 1 to 20
C[C@H]1O[C@@H](n2cnc3c(OCc4cccc(C#N)c4)ncnc32)[C@H](O)[C@@H]1O [Compound 221] | > 500
C[C@H]1O[C@@H](n2c(NCCCO)nc3c(OCc4ccc(C#N)cc4)ncnc32)[C@H](O)[C@@H]1O [Compound 43] | 20 to 500
C[C@H]1O[C@@H](n2c(NCCCS(C)(=O)=O)nc3c(OCc4ccc(OC(F)F)cc4)ncnc32)[C@H](O)[C@@H]1O [Compound 62] | 1 to 20
C[C@H]1O[C@@H](n2cnc3c(SCc4ccc(OCC(F)(F)F)cc4)ncnc32)[C@H](O)[C@@H]1O [Compound 207] | 20 to 500
C[C@H]1O[C@@H](n2c(NC3CCS(=O)(=O)CC3)nc3c(N4CCc5ccc([N+](=O)[O-])cc5C4)ncnc32)[C@H](O)[C@@H]1O [Compound 136] | < 1
Cc1ncc(CNc2nc3c(OCc4ccc(C#N)cc4)ncnc3n2[C@@H]2O[C@H](C)[C@@H](O)[C@H]2O)cn1 [Compound 71] | 1 to 20
C[C@H]1O[C@@H](n2c(N[C@H]3C[C@@](C)(O)C3)nc3c(OCc4ccc(OC(F)F)cc4)ncnc32)[C@H](O)[C@@H]1O [Compound 123] | 1 to 20
C[C@H]1O[C@@H](n2c(NC3CCCC3)nc3c(OCc4ccc(C(F)F)cc4)ncnc32)[C@H](O)[C@@H]1O [Compound 94] | 1 to 20
C[C@H]1O[C@@H](n2c(NCCCS(C)(=O)=O)nc3c(OCc4ccc([N+](=O)[O-])cc4)ncnc32)[C@H](O)[C@@H]1O [Compound 60] | 1 to 20
COCCCNc1nc2c(OCc3ccc(C#N)cc3)ncnc2n1[C@@H]1O[C@H](C)[C@@H](O)[C@H]1O [Compound 45] | 1 to 20
C[C@H]1O[C@@H](n2cc(C(F)(F)F)c3c(SCc4ccc([N+](=O)[O-])cc4)ncnc32)[C@H](O)[C@@H]1O [Compound 163] | 20 to 500
C[C@H]1O[C@@H](n2c(N[C@H]3CC[C@](C)(O)CC3)nc3c(OCc4ccc(C#N)cc4)ncnc32)[C@H](O)[C@@H]1O [Compound 132] | 1 to 20
